According to patent publication US8445505B2 (IRM LLC, priority 2008, dated 2013):

target: T1, IGF1R Ba/F3 (Homo sapiens, UniProt P08069); test: Ba/F3 Cell Viability Inhibition Assay (Tel-TK transformed Ba/F3 lines); type: cell-based, murine; set-up: most likely, as the lines are called Tel-TK) or BCR (P11274); conditions: Tel-TK (IGF1R) transformed Ba/F3 cells, 48 hours incubation, cell viability (Britelite luminescence)
Excerpt: Ba/F3 is a murine IL-3-dependent pro-B lymphoma cell line. Parental Ba/F3 cells are used to generate a panel of sublines whose proliferation and survival is rendered IL-3-independent by stable transduction with individual tyrosine kinases activated by fusion with the amino-terminal portion of TEL (amino acid 1-375) or BCR. In order to generate Ba/F3 cell lines transformed by Tel-Tyrosine Kinase (TK) fusions, parental Ba/F3 cells are infected with a retrovirus harboring each TEL-fusion kinase and subjected to puromycin selection and IL-3 withdrawal to obtain IL-3-independent, transformed Ba/F3 cells.
Each transformed Ba/F3 cells are cultured in RPMI-1640 media (Gibco Cat #11875093, Carlsbad, Calif.) supplemented with 10% FBS (Hyclone Cat #SV30014.03, Logan, Utah), 4.5 g/L glucose (Sigma #G5400, St.Louis, Mo.), 1.5 g/L sodium bicarbonate (Biowhittaker #17-613E, Walkersville, Md.) and Pen/Strep (Gibco #10378-016, Carlsbad, Calif.). Cells are splitted twice weekly.
The potency of test compounds against various Tel-TK transformed Ba/F3 lines is determined as follows. Exponentially growing BaF3 Tel-TK cells are diluted in fresh medium to 75,000 cells/mL and seeded into 384-well plates (3750 cells/well) at 50 μL/well using a gill liquid dispenser (BioTek, Winooski, Vt., USA). […] 25 μL Britelite (Perkin Elmer) is added and luminescence is quantified using Analyst GT (Molecular Devices). […]

T1 sequence (P08069 999-1274 limits assumed): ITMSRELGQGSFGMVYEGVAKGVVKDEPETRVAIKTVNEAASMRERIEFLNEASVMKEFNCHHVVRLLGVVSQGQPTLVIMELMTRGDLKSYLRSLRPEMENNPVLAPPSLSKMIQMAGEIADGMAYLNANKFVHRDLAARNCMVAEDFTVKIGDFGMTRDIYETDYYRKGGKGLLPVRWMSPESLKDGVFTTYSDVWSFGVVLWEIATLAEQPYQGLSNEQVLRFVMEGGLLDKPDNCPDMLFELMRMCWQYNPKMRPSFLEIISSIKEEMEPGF

Row | SMILES | IC50
1 | Cc1cc(Nc2nc(Nc3cc(C)c(-c4cccnc4)cc3C)ncc2Cl)n[nH]1 [Compound 13] | 29 nM

target: T1, IGF1R Ba/F3; test: as above; type: cell-based, murine; set-up: the printed alternative; conditions: Tel-TK (IGF1R) transformed Ba/F3 cells, 48 hours incubation, cell viability (Britelite luminescence); remark: another data set of the same source
Procedure, shortened: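 Murine pro-B Ba/F3 cells made IL-3-independent by TEL(1-375)- or BCR-fused tyrosine kinases; parental line run with 1 ng/ml IL-3 (final). 3750 cells/well exposed to DMSO-diluted compound for 48 h at 37 °C; viability read by Britelite luminescence. IC50 from logistic fit, concentration reducing viability to 50% of DMSO control.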

Row | SMILES | IC50
2 | Cc1cc(Nc2nc(Nc3cc4c(cc3F)CN(C3CCNCC3)C4=O)ncc2Cl)n[nH]1 [Compound 79, 6-(5-chloro-4-(5-methyl-1H-pyrazol-3-ylamino)pyrimidin-2-ylamino)-5-fluoro-2-(piperidin-4-yl)isoindolin-1-one] | 6400 nM
3 | Cc1cc(Nc2nc(Nc3cc4c(cc3F)CN(C3CCNCC3)C4=O)ncc2Cl)no1 [Compound 80, 6-(5-chloro-4-(5-methylisoxazol-3-ylamino)pyrimidin-2-ylamino)-5-fluoro-2-(piperidin-4-yl)isoindolin-1-one] | 2650 nM
4 | O=C1NCc2cc(F)c(Nc3ncc(Cl)c(Nc4cc(C5CC5)[nH]n4)n3)cc21 [Compound 81, 6-(5-chloro-4-(5-cyclopropyl-1H-pyrazol-3-ylamino)pyrimidin-2-ylamino)-5-fluoroisoindolin-1-one] | 2300 nM
5 | Cc1cc(Nc2nc(Nc3cc4c(cc3F)CNC4=O)ncc2Cl)n[nH]1 [Compound 82, 6-(5-chloro-4-(5-methyl-1H-pyrazol-3-ylamino)pyrimidin-2-ylamino)-5-fluoroisoindolin-1-one] | 2630 nM
6 | Cc1cc2c(Nc3ncc(Cl)c(Nc4cc(C)[nH]n4)n3)cccc2nn1 [Compound 83, 5-chloro-N4-(5-methyl-1H-pyrazol-3-yl)-N2-(3-methylcinnolin-5-yl)pyrimidine-2,4-diamine] | 1450 nM
7 | Cc1cc(Nc2nc(Nc3cc(C)c(C4CCN(CC(N)=O)CC4)cn3)ncc2Cl)n[nH]1 [Compound 84, 2-(4-(6-(5-Chloro-4-(5-methyl-1H-pyrazol-3-ylamino)pyrimidin-2-ylamino)-4-methylpyridin-3-yl)piperidin-1-yl)acetamide] | 525 nM
8 | Cc1cc(Nc2nc(Nc3ccc(C4CCNCC4)c4ccccc34)ncc2Cl)n[nH]1 [Compound 85, 5-chloro-N^4-(5-methyl-1H-pyrazol-3-yl)-N^2-(4-(piperidin-4-yl)naphthalene-1-yl)pyrimidine-2,4-diamine] | 493 nM
9 | Cc1cc(Nc2nc(Nc3ccc(C4CCN(CC(N)=O)CC4)c4ccccc34)ncc2Cl)n[nH]1 [Compound 86, 2-(4-(4-(5-chloro-4-(5-methyl-1H-pyrazol-3-ylamino)pyrimidin-2-ylamino)naphthalene-1-yl)piperidin-1-yl)acetamide] | 107 nM
10 | CNC(=O)CN1CCC(c2ccc(Nc3ncc(Cl)c(Nc4cc(C)[nH]n4)n3)c3ccccc23)CC1 [Compound 87, 2-(4-(4-(5-chloro-4-(5-methyl-1H-pyrazol-3-ylamino)pyrimidin-2-ylamino)naphthalen-1-yl)piperidin-1-yl)-N-methylacetamide] | 82 nM
11 | Cc1cc(Nc2nc(Nc3ccc(C4CCN(CC(O)C(F)(F)F)CC4)c4ccccc34)ncc2Cl)n[nH]1 (stereo not drawn) [Compound 88, 3-(4-(4-(5-chloro-4-(5-methyl-1H-pyrazol-3-ylamino)pyrimidin-2-ylamino)naphthalen-1-yl)piperidin-1-yl)-1,1,1-trifluoropropan-2-ol] | 346 nM
12 | CCN1CCc2ccc(Nc3ncc(Cl)c(Nc4cc(C)[nH]n4)n3)cc2CC1 [Compound 89] | 88 nM
